This note sets out measurements from article PMC8550792, “Evolution of kinase polypharmacology across HSP90 drug discovery” (Cell Chemical Biology, 2021).

Common to all, as to test: biochemical
Type in all cases: biochemical

Assay [1] deals with T1, 382 unique human kinases (Homo sapiens, UniProt P42680).
T1 construct: purchased Reaction Biology (HotSpot contract assay)
T1 sequence (P42680 1-631): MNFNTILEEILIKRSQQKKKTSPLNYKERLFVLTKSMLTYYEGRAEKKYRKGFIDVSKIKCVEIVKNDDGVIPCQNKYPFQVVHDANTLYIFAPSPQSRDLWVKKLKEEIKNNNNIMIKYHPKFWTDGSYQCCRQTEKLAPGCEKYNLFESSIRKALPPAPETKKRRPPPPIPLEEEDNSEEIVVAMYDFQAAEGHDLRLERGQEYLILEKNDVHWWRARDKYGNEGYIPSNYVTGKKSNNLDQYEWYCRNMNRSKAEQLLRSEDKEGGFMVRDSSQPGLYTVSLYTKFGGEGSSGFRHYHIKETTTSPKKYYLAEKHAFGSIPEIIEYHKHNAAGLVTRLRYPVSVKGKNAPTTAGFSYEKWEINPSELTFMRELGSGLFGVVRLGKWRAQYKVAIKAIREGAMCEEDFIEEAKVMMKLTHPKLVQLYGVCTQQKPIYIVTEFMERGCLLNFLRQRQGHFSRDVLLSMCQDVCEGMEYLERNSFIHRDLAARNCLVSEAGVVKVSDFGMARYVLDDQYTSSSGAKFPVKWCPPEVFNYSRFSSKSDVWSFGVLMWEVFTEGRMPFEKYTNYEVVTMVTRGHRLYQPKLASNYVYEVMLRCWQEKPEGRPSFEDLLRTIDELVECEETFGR
The note with it: TEC, 10 uM; for remaining activity at 10 µM: read-out: % Enzyme Activity (relative to DMSO controls).

Assay [2] has as its target T2, 382 unique human kinases (Homo sapiens, UniProt P50613).
T2 construct: purchased Reaction Biology (HotSpot contract assay)
The note with it: kinase CDK7/cyclin H, compound 10 uM; for remaining activity at 10 µM: read-out: % Enzyme Activity (relative to DMSO controls).

For assay [3], the target named is T3, 382 unique human kinases (Homo sapiens, UniProt P52564).
T3 construct: purchased Reaction Biology (HotSpot contract assay)
T3 sequence (P52564 1-334): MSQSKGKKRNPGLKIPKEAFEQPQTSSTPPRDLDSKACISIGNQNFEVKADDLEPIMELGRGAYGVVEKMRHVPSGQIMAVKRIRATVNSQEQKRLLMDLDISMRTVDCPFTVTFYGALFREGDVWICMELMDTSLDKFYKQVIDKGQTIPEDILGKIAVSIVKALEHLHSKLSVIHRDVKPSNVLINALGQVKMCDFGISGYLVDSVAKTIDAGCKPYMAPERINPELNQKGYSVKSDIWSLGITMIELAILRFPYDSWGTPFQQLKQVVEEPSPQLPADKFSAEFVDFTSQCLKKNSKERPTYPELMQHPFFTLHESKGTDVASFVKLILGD
The conditions noted are these: MKK6, 10 uM; for remaining activity at 10 µM: read-out: % Enzyme Activity (relative to DMSO controls).

For assay [4], the target named is T4, 382 unique human kinases (Homo sapiens, UniProt Q02763, Y897C).
T4 construct: purchased Reaction Biology (HotSpot contract assay)
T4 sequence (Q02763 23-1124 Y897C): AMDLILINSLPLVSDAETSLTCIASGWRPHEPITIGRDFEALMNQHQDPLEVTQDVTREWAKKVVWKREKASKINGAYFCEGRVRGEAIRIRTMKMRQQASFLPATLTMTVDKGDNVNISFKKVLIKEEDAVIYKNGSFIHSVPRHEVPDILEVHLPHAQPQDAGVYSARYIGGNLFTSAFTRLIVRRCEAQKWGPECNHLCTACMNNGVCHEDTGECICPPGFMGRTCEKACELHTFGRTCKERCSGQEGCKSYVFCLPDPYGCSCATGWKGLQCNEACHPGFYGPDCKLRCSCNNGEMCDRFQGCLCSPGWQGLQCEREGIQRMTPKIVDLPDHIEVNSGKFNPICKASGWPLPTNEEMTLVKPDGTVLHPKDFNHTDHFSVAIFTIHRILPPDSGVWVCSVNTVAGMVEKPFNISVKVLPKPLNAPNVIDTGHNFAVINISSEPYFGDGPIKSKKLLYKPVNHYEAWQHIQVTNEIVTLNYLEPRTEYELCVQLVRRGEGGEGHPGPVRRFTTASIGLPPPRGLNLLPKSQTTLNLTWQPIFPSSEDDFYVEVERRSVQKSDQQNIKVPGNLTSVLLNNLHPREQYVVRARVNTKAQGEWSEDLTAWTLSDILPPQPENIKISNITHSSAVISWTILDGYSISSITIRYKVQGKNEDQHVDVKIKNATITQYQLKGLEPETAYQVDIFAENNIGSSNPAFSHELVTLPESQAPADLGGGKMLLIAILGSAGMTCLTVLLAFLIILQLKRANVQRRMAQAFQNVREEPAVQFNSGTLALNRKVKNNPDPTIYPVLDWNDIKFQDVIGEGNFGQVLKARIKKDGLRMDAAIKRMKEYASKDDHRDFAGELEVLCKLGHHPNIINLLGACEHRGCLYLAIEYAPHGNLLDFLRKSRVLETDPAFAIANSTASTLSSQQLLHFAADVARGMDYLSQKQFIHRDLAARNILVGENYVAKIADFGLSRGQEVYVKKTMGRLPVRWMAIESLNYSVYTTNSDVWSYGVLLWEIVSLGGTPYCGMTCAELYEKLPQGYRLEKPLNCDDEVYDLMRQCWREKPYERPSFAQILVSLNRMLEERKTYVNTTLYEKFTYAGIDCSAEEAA
The note with it: kinase TIE2 (Y897C), compound 10 uM; for remaining activity at 10 µM: read-out: % Enzyme Activity (relative to DMSO controls).

Assay [5] concerns the target T5, 382 unique human kinases (Homo sapiens, UniProt Q15375).
T5 construct: purchased Reaction Biology (HotSpot contract assay)
The conditions noted are these: kinase EPHA7, compound 10 uM; for remaining activity at 10 µM: read-out: % Enzyme Activity (relative to DMSO controls).

Assay [6] deals with T6, 382 unique human kinases (Homo sapiens, UniProt Q8TDC3).
T6 construct: purchased Reaction Biology (HotSpot contract assay)
T6 sequence (Q8TDC3 1-778): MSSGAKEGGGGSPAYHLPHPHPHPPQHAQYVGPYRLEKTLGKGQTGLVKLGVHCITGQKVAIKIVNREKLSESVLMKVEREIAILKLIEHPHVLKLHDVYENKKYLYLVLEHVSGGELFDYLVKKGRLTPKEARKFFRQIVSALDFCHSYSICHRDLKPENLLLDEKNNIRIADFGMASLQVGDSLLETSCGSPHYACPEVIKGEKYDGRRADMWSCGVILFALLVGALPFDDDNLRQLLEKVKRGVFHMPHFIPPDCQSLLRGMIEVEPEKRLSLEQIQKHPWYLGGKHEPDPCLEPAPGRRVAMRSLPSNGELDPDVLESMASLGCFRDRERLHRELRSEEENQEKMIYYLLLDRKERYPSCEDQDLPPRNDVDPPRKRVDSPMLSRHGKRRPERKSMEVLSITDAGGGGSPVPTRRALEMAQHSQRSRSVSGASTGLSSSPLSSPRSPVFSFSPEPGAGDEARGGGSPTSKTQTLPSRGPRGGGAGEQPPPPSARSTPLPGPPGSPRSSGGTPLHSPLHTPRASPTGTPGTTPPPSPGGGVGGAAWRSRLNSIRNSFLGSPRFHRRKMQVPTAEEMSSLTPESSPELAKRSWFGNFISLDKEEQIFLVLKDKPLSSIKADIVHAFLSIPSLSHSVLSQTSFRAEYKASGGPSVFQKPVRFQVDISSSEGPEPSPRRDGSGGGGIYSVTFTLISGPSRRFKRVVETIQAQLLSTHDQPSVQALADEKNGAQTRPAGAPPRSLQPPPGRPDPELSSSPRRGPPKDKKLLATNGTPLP
The note with it: kinase BRSK1, compound 10 uM; for remaining activity at 10 µM: read-out: % Enzyme Activity (relative to DMSO controls).

The target in assay [7] is T7, 382 unique human kinases (Homo sapiens, UniProt P10721, N822K/V560G).
T7 construct: purchased Reaction Biology (HotSpot contract assay)
T7 sequence (P10721 26-976 V560G/N822K): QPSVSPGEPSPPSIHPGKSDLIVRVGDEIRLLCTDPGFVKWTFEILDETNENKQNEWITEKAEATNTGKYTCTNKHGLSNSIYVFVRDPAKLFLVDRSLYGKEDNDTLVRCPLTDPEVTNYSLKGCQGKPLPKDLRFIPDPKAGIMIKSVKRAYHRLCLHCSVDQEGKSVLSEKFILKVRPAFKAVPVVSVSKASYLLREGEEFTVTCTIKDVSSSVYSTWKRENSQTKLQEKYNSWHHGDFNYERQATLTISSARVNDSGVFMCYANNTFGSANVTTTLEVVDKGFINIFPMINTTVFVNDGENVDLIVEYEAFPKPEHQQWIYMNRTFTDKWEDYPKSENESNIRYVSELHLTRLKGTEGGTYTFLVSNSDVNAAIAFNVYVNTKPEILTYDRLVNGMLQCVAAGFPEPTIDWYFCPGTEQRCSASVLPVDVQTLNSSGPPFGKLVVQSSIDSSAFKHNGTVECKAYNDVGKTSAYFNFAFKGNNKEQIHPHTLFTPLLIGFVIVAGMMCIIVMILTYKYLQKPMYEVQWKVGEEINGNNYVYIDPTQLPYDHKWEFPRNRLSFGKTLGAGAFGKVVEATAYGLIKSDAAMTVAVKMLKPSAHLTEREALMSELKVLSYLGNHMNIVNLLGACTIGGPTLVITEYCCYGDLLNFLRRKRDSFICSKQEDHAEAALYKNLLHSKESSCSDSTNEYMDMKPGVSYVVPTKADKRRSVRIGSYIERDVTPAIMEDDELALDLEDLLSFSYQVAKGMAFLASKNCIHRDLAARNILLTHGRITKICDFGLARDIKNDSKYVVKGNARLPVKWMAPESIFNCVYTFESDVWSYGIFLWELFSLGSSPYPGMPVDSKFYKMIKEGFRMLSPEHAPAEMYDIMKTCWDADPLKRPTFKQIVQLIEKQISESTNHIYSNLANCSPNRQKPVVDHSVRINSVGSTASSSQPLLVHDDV
The note with it: c-Kit (V560G/N822K), [ATP] 5 µM, compound 10 uM; for remaining activity at 10 µM: read-out: % Enzyme Activity (relative to DMSO controls).

The target in assay [8] is T8, 382 unique human kinases (Homo sapiens, UniProt P21802, V564F).
T8 construct: purchased Reaction Biology (HotSpot contract assay)
T8 sequence (P21802 22-821 V564F): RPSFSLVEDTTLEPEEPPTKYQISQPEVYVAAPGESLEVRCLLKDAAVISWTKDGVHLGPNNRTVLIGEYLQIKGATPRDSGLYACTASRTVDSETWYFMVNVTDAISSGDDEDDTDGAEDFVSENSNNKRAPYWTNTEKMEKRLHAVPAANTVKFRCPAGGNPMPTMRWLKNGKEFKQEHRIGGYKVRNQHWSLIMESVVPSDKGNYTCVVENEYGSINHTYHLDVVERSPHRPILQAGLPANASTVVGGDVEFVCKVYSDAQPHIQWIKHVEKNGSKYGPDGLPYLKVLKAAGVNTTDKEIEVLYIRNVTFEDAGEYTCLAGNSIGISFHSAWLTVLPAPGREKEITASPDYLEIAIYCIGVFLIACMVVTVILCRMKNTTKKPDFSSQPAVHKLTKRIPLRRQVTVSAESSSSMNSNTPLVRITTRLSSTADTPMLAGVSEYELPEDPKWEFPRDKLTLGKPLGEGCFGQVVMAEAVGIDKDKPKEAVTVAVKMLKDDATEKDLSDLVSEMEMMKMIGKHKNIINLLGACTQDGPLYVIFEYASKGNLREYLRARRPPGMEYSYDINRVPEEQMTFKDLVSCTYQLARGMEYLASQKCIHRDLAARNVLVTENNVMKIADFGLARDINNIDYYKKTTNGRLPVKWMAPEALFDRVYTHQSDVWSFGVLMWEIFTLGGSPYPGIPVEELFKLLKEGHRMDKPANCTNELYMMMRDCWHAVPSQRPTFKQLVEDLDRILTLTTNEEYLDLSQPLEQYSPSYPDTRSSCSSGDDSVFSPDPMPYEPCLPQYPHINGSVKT
The conditions noted are these: FGFR2 (V564F), [ATP] 30 µM, compound 10 uM; for remaining activity at 10 µM: read-out: % Enzyme Activity (relative to DMSO controls).

Assay [9] concerns the target T9, 382 unique human kinases (Homo sapiens, UniProt P43405).
T9 construct: purchased Reaction Biology (HotSpot contract assay)
The conditions noted are these: SYK, 10 uM; for remaining activity at 10 µM: read-out: % Enzyme Activity (relative to DMSO controls).

Assay [10] addresses T10, 382 unique human kinases (Homo sapiens, UniProt Q9UBE8).
T10 construct: purchased Reaction Biology (HotSpot contract assay)
T10 sequence (Q9UBE8 1-527): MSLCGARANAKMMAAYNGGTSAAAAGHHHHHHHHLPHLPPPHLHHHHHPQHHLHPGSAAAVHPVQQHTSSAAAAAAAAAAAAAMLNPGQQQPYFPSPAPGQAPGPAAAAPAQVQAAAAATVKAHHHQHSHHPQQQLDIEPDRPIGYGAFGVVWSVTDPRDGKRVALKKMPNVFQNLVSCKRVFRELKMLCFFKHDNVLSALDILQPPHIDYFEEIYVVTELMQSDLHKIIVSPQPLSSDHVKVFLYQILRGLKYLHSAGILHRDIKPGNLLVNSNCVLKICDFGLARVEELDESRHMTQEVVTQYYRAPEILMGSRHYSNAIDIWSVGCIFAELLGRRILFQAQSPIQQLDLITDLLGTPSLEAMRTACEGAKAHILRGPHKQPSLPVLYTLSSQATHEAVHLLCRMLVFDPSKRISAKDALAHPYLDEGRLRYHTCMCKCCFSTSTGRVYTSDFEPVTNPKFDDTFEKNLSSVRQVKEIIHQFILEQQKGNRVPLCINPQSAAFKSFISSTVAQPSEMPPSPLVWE
The conditions noted are these: NLK, 10 uM; for remaining activity at 10 µM: read-out: % Enzyme Activity (relative to DMSO controls).

Each structure is given as a SMILES string.

T5 sequence (Q15375 28-998): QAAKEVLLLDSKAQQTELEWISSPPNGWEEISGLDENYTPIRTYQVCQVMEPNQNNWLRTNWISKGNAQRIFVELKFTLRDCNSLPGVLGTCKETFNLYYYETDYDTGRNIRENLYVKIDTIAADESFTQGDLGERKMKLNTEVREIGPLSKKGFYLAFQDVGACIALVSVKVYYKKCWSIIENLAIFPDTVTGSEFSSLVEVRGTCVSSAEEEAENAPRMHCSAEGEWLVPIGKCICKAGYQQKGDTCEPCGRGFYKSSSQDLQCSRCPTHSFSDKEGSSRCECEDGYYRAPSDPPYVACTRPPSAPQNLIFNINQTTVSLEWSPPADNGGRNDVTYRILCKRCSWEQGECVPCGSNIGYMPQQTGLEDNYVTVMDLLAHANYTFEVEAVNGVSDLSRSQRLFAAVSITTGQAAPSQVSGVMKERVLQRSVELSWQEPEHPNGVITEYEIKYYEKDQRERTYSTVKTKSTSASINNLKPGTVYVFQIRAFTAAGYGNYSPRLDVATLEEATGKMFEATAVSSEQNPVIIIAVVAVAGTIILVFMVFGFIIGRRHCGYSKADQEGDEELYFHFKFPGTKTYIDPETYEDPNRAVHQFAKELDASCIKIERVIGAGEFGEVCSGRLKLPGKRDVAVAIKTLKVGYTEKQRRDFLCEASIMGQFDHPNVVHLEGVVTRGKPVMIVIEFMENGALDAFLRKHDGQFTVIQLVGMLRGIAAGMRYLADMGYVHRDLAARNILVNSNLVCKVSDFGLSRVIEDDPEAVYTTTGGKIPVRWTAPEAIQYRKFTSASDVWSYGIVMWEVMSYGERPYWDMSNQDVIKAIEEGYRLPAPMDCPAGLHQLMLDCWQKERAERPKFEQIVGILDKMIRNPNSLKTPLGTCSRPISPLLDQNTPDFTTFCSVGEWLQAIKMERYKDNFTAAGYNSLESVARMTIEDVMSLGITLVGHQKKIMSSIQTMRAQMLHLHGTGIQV
T2 sequence (P50613 whole entry): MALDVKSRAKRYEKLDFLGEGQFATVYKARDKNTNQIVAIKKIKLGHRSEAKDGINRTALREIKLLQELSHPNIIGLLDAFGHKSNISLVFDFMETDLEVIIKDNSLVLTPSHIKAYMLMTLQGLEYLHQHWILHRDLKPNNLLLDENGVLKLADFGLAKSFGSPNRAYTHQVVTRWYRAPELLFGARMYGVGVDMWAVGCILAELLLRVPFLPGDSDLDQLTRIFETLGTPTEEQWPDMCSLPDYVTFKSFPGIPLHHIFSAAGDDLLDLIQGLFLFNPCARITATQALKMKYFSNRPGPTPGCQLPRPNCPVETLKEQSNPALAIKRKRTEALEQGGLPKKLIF

For the compound `CC(C)c1cc(-c2n[nH]c(=O)n2-c2ccc3c(ccn3C)c2)c(O)cc1O` [Ganetespib (STA9090)], the remaining activity at 10 µM in [1] came to 59.7%; in assay [2] it was 95.8%; in [3] it was 72.9%; in [4] it was 88%; in assay [5] it was 86.7%; in assay [6], 81.4%.

Turning to `CC(C)c1cc(-c2n[nH]c(=O)n2-c2ccc3c(ccn3C)c2)c(O)cc1O` [Ganetespib], the remaining activity at 10 µM in assay [7] came to 41.8%; in [8] it was 41.2%; in assay [9], 94%; in assay [10] it was 94.8%.

`CCNC(=O)c1noc(-c2cc(C(C)C)c(O)cc2O)c1-c1ccc(CN2CCOCC2)cc1` [Luminespib (AUY-922)]: the “% Enzyme Activity (relative to DMSO controls)” value amounted to 96.94% in assay [1]; 84.47% in [2]; 98.81% in assay [3]; 99.30% in assay [4]; 95.91% in [5]; 99.19% in [6]. Further, the remaining activity at 10 µM was 97.9% in [1]; 85.3% in assay [2]; 100% in assay [3]; 100% in [4]; 97.9% in assay [5]; 100% in assay [6].

Turning to `CCNC(=O)c1noc(-c2cc(C(C)C)c(O)cc2O)c1-c1ccc(CN2CCOCC2)cc1` [Luminespib], the “% Enzyme Activity (relative to DMSO controls)” value in assay [7] is recorded as 75.80%; in assay [8], 98.77%; in assay [9], 101.25%; in [10], 91.72%. Also, the remaining activity at 10 µM amounted to 76.2% in [7], 99.4% in assay [8], 102% in [9] and 92.5% in assay [10].
